Source: patent US20250054582A1, “METHOD OF IDENTIFYING A SOLVENT FOR A MATRIKINE” (THE BOOTS COMPANY PLC, priority 2021, published 2025)
Peptide text beside a SMILES is read from it.

What was measured:
[1] = HSPiP analysis: Hansen Solubility Sphere of the matrikine from solubility scores; assay type: physicochemical; design: δD / δP: unit not given here; settings: for δD / δH / δP: Hansen Solubility Parameter of the peptide; for δD / δH / δP / R (Size of HSP Sphere): overall results summary; for δD value / δH value: in words, HSPiP fit of solubility scores; for radius: radius of the HSP sphere
Procedure: (§1) The HSP sphere of seven different matrikines was determined by using a range of reference solvents (solvents with known HSP spheres) to dissolve the matrikines. The reference solvents were then ranked based on their ability to dissolve the matrikines. A software package called Hansen Solubility Parameters in Practice (HSPiP) was then used to determine the HSPs of each of the matrikines.
The use of qualitative rankings of solubility phenomena makes it possible to define a spheroidal cluster in which the most compatible samples are contained.
The scores from 1 to 6 were entered into the HSPiP data form and then the software analyses the data to produce a Hansen diagram of the solubility sphere, alongside details of the solubility parameters and the goodness of the fit of the data to the sphere, in text format.

[2] = Qualitative solubility ranking of matrikines in reference solvents; assay type: physicochemical
Procedure: as §1
In general, a set of around 20 standard reference solvents was used to carry out preliminary investigations in solubility tests. Following this, additional/fine-tuning (FT) solvents were selected and used to are used to optimise the reliability and definition of the solubility parameters of the matrikines.
All samples were prepared under standard conditions, within an air-conditioned laboratory environment, at 20° C. and a standard pressure.
Usually, samples are prepared on the Formax High-throughput Formulation System, manufactured by Chemspeed. However due to the small sample size, the samples of this project were prepared manually using a single channel pipette for liquids and an analytical balance for solids.
Qualitative evaluation of the solubility of the matrikines within a range of different reference solvents was used. Samples were placed into six categories, according to the relative extent to which the matrikine dissolved in the solvent.
Between these two extremes sit the other four ranking-categories, whose typical descriptions can be found in table 1 below.

[3] = Franz cell skin explant penetration with 3D OrbiSIMS analysis; assay type: in vitro ADME, human
Procedure: For ex vivo analysis, full thickness human skin tissue was removed during cosmetic surgery from Caucasian female donors (aged 35-70). The explant was frozen immediately post-surgery, shipped and stored at −20° C. prior to use.
The tissue was then defrosted, cut and mounted, dermal side down, in a Franz-type static diffusion cell set-up (Franz, 1975), with an exposed surface area of 1.1 cm^2. Infinite doses of the cosmetic formulations were applied to the donor chamber, with the explant exposed to the formulations for 1 hour in a water bath set to 36.5° C. Sink conditions were maintained throughout the experiments.
After 1 hour, the Franz cell was dismantled, excess formulation was removed with a dry sponge and the skin explant was wiped with a sponge soaked in Teepol Solution (3% v/v). Next, the explant was dehydrated under vacuum at room temperature for 24 hours before 3D OrbiSIMS analysis […]
A 20 KeV Ar3000+ analysis beam with a diameter of 20 μm was used as the primary ion source. Samples were analysed at ambient temperature across a 400×400 μm area in positive polarity with sawtooth raster mode and a total crater size of 486×486 μm. […] Mass spectra were recorded at a resolution of 240,000 at m/z 200 in the mass range of 75 to 1,125 m/z. […]

[4] = blend Glycerol Carbonate:Dimethyl Formamide:1-Propanol 55:25:20%

Row | SMILES | greatest contribution to the cohesive energy density [1] | δD [1] | δH [1] | δP [1] | δD value [1] | δH value [1] | R (Size of HSP Sphere) [1] [MPa^0.5] | radius [1] [units] | solubility over the reference solvents tested (in words) [2] | penetration into the skin tissues ([3]; formulation containing methyl gluceth-20 compared to glycerin only, 1 hour) | Pal-GHK peptide ion intensity in skin explant ([3]; formulation with glycerin+methyl gluceth-20 versus glycerin only, 1 hour in Franz cell, 3D OrbiSIMS) | dissolution (in words) ([2]; blend Propylene Carbonate:Propylene Glycol 65:35%) | dissolution (in words) ([2]; blend Propylene Glycol Monomethyl Ether:Propylene Carbonate 55:45%) | dissolution (in words) ([2]; blend Benzyl Alcohol:2-Propanol 80:20%) | dissolution (in words) [2, 4] | dissolution (in words) ([2]; solvent 2-PhenoxyEthanol) | dissolution (in words) ([2]; solvent N-Methyl Formamide)
1 | CCCCCCCCCCCCCCCC(=O)N[C@@H](CCC(=O)O)C(=O)N[C@@H](CCCCN)C(=O)NCC(=O)N[C@@H](CC(=O)O)C(=O)O [Pal-EKGD] (HELM PEPTIDE1{[CCCCCCCCCCCCCCCC(=O)[*:2]].E.K.G.D}$$$$V2.0) | Dispersion forces | 17.31 | 17.26 | 13.92 | moderate | moderate | 10.3 | 10.3 | – | – | – | – | – | – | – | – | –
2 | CCCCCCCCCCCCCCCC(=O)NCC(=O)N[C@@H](Cc1c[nH]cn1)C(=O)N[C@@H](CCCCN)C(=O)O [Pal-GHK, N-Palmitoyl-Gly-His-Lys] (HELM PEPTIDE1{[CCCCCCCCCCCCCCCC(=O)[*:2]].G.H.K}$$$$V2.0) | Dispersion forces | 17.83 | 11.22 | 6.57 | moderate | low | 3.5 | 3.5 | No samples showed complete dissolution | penetrated quicker | more peptide ion present | – | – | – | – | – | –
3 | CCCCCCCCCCCCCCCC(=O)NCC(=O)N1CCC[C@H]1C(=O)N[C@@H](CCCCN)C(=O)NCC(=O)O [Pal-GPKG] (HELM PEPTIDE1{[CCCCCCCCCCCCCCCC(=O)[*:2]].G.P.K.G}$$$$V2.0) | Dispersion forces | 17.82 | 17.73 | 10.55 | moderate | moderate | 8.3 | 8.3 | – | – | – | did not dissolve | did not dissolve | – | – | – | –
4 | CCCCCCCCCCCCCCCC(=O)NCC(=O)N[C@@H](CCC(N)=O)C(=O)N1CCC[C@H]1C(=O)N[C@@H](CCCNC(=N)N)C(=O)O [Pal-GQPR, N-palmitoyl-Gly-Gln-Pro-Arg] (HELM PEPTIDE1{[CCCCCCCCCCCCCCCC(=O)[*:2]].G.Q.P.R}$$$$V2.0) | – | – | – | – | – | – | – | – | – | – | – | – | – | did not dissolve | did not dissolve | most interaction with the product without complete dissolution | complete dissolution
5 | CCCCCCCCCCCCCCCC(=O)N[C@@H](CC(C)C)C(=O)N[C@@H](CO)C(=O)N[C@H](C(=O)N[C@@H](CC(=O)O)C(=O)O)C(C)C [Pal-LSVD] (HELM PEPTIDE1{[CCCCCCCCCCCCCCCC(=O)[*:2]].L.S.V.D}$$$$V2.0) | Dispersion forces | 18.84 | 14.82 | 12.04 | high | low | 6.8 | 6.8 | very limited solubility | – | – | – | – | – | – | – | –
6 | CCCCCCCCCCCCCCCC(=O)N[C@@H](CCC(N)=O)C(=O)N[C@H](C(=O)N[C@@H](C)C(=O)N[C@H](C(=O)O)C(C)C)[C@@H](C)O [Pal-QTAV] (HELM PEPTIDE1{[CCCCCCCCCCCCCCCC(=O)[*:2]].Q.T.A.V}$$$$V2.0) | Dispersion forces | 17.61 | 10.95 | 10.66 | moderate | low | 6 | 6 | – | – | – | – | – | – | didn't dissolve | – | –
